Results published in paper PMC11736000, “Structural and functional analysis of a bile salt hydrolase from the bison microbiome” (The Journal of Biological Chemistry, 2024).

Molecular target: T1, bile salt hydrolase from Arthrobacter citreus EINP1 (BSHAc) (Arthrobacter citreus, UniProt A0ABZ2ZT44)
T1 construct: gene bsh; C-terminally hexahistidine-tagged recombinant BSHAc; NCBI WP_342023006.1
Assay: […] Å crystal structure of the covalent complex; time-dependent inactivation kinetics of the purified enzyme (kinact/KI […] ^-1s^-1)
Format: biochemical

T1 sequence (A0ABZ2ZT44 entry or part of it): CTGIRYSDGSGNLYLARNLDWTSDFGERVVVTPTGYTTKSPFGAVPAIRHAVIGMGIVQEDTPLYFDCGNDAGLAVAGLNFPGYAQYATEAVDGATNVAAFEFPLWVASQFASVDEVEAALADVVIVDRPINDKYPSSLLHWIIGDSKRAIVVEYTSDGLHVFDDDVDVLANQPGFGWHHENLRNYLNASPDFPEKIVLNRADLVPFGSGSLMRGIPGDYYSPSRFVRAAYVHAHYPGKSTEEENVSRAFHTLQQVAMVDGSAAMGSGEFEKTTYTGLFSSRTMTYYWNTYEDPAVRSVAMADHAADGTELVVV

C[C@H](CCC(=O)CF)[C@H]1CC[C@H]2[C@@H]3CC[C@@H]4C[C@H](OS(=O)(=O)O)CC[C@]4(C)[C@H]3CC[C@]12C [AAA-10]
KI (inactivation): 23 µM
